Here are results for five compounds from ChEMBL document CHEMBL1201862, “PubChem BioAssay data set” (2004).

Among the test systems are RPMI-8226; CCRF-CEM; SK-MEL-5; CAKI-1; HCC 2998; TK-10; NCI-H460; MOLT-4; NCI-H522; OVCAR-3; OVCAR-4; HCT-15; HCT-116; UACC-62; SR.
What all share (assay): NCI anticancer screen, dose series, 48 h

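Interpolation was linear, between the two tested concentrations surrounding the appropriate level; five concentrations were tested over 48 hours in 96-well plates. GI50 is the concentration that inhibits growth by half.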 Active and inactive are the calls of the source. No stated cut-off is given here; in the data, active = GI50 up to about 1.1 µM and inactive = higher.

Take `Cn1ncc2c(Nc3ccc(Cl)cc3)c3ccccc3nc21`: the GI50 in the assay on RPMI-8226 is 20.1 µM (inactive); with CCRF-CEM it was 17.9 µM (inactive); in the assay on SK-MEL-5, 13.6 µM (inactive); in the assay with CAKI-1 it was 21.8 µM (inactive); in the assay with HCC 2998, 22.9 µM (inactive); in the assay with TK-10, 21.4 µM (inactive). In addition, the GI50 with NCI-H460 was 18.7 µM (inactive); with MOLT-4 it was 11.4 µM (inactive); in the assay with NCI-H522, 19.4 µM (inactive); in the assay on OVCAR-3, 18.7 µM (inactive); in the assay with OVCAR-4, 12.4 µM (inactive); in the assay with HCT-15, 15.7 µM. Moreover, the GI50 in the assay with HCT-116 was 12.2 µM (inactive); in the assay with UACC-62 it was 15.1 µM (inactive); with SR it was 14.9 µM (inactive).

`CC1(C)O[C@@H](CCl)C[C@H](C#N)O1`: the GI50 with RPMI-8226, with CCRF-CEM, in the assay with SK-MEL-5, with CAKI-1, in the assay on HCC 2998 and in the assay on TK-10 was > 100 µM (inactive) throughout. Further, the GI50 in the assay on NCI-H460 was > 100 µM (inactive); in the assay on MOLT-4, > 100 µM (inactive); in the assay with NCI-H522, > 100 µM (inactive); with OVCAR-3, > 100 µM (inactive); in the assay with OVCAR-4 it was > 100 µM (inactive); in the assay with HCT-15 it was greater than 100 µM. For the same compound, the GI50 in the assay on HCT-116, in the assay on UACC-62 and in the assay on SR was > 100 µM (inactive) each time.

`Cn1c(=O)c2nc(NCCO)cnc2n(C)c1=O`: the GI50 is 66.4 µM (inactive) with RPMI-8226; > 100 µM (inactive) in the assay with CCRF-CEM; > 100 µM (inactive) in the assay on SK-MEL-5; 95.5 µM (inactive) with CAKI-1; 64.6 µM (inactive) in the assay on HCC 2998; > 100 µM (inactive) in the assay on TK-10. For the same compound, the GI50 is 59.7 µM (inactive) in the assay on NCI-H460; > 100 µM (inactive) with MOLT-4; 21.5 µM (inactive) in the assay with NCI-H522; 23.3 µM (inactive) in the assay on OVCAR-3; 62.7 µM (inactive) in the assay on OVCAR-4; 85.9 µM with HCT-15. The GI50 in the assay with HCT-116 was 62.8 µM (inactive); in the assay on UACC-62, 37.8 µM (inactive); in the assay on SR, 42.8 µM (inactive).

Consider `CCN(CC)CC1CCCCN1CC(=O)N1c2cc(Cl)ccc2NC(=O)CC1C` (centres undefined), for which the GI50 in the assay with RPMI-8226, with CCRF-CEM, in the assay on SK-MEL-5, in the assay with CAKI-1, in the assay on HCC 2998 and in the assay with TK-10 was > 100 µM (inactive) in each case. Further, the GI50 is > 100 µM (inactive) with NCI-H460; > 100 µM (inactive) with MOLT-4; > 100 µM (inactive) in the assay on NCI-H522; > 100 µM (inactive) in the assay with OVCAR-3; > 100 µM (inactive) in the assay on OVCAR-4; greater than 10 µM with HCT-15. The GI50 was > 100 µM (inactive) in the assay with HCT-116, 55.3 µM (inactive) in the assay with UACC-62 and > 100 µM (inactive) with SR.

Consider `CC[C@H](C)N(CCN)C(=O)c1cc2ccccc2c(-c2ccccc2Cl)n1`, for which the GI50 in the assay with RPMI-8226 was 13.2 µM (inactive); in the assay with CCRF-CEM, 3.3 µM (inactive); in the assay on CAKI-1, 5.57 µM (inactive); in the assay with HCC 2998, 2.72 µM (inactive); in the assay with TK-10 it was 12.1 µM (inactive); in the assay with NCI-H460 it was 14.1 µM (inactive). In addition, the GI50 in the assay on MOLT-4 was 7.31 µM (inactive); in the assay on NCI-H522, 17.5 µM (inactive); in the assay with OVCAR-3, 16.6 µM (inactive); in the assay with OVCAR-4, 14.6 µM (inactive); in the assay on HCT-15 it was 4.42 µM; with HCT-116, 2.85 µM (inactive). Besides, the GI50 in the assay with UACC-62 and in the assay with SR was 10.8 µM (inactive) in each case.
